Laboratory results taken from patent US20120066778A1, “CONTROL OF URIC ACID HOMEOSTASIS” (priority 2009, published 2012).

What was measured:
[1] = test system: UREX sensor circuit (mUTS, hucO8); assay: Uric acid response of UREX-controlled SEAP expression in cultured human cells; assay type: cell-based; conditions: 5 mM uric acid added to cultures transfected with pCK9 and pCK25, 48 h
Description: (d) Functional validation of the UREX sensor circuit. 4×10^4 HeLa cells were co-transfected with the UREX expression vectors pCK9 and pCK25 (see FIG. 1a) and cultivated for 48 h in the presence or absence of 5 mM uric acid before SEAP was quantified in the cell culture supernatant.
(e-g) Urate-dependent dose-response characteristics of UREX in the presence and absence of the human urate transporter URAT1. 3×10^5 HeLa (e), HEK-293 (f) or HT-1080 cells (g) were co-transfected with the UREX sensor plasmids pCK9 and pCK25 (see FIG. 1a) and either pURAT1 (PhCMV-URAT1-pA) or the isogenic control vector pcDNA3.1. The transfected populations were cultivated in medium supplemented with different uric acid concentrations and resulting SEAP levels were profiled after 48 h.
(b) Urate-based dose-response profile of the triple-transgenic HEK-293UREX15 cell line stably engineered for UREX-controlled SEAP and constitutive URAT1 expression. 5×10^4 HEK-293UREX15 were cultivated in the presence of different urate concentrations and SEAP levels were quantified in the culture supernatant after 72 h.
(c) Reversibility of the UREX-based uric acid sensor circuit. 2×10^5 HEK-293UREX15 cells were cultivated for 10 days while alternating uric acid concentrations from 0 to 5 mM every 72 h (arrows). […]

uric acid = assay: Urate reduction in culture medium by mUox/smUox-expressing HeLaURAT1 cells; assay type: cell-based, human; conditions: HeLaURAT1, 0.5 mM uric acid, 72 h, constitutive or mUTS-controlled expression
Description: (a) Profiling of urate reduction mediated by constitutive or UREX-controlled expression of an intracellular (mUox) or secretion-engineered (smUox) urate oxidase variant. 2×10^5 HeLaURAT1 cells were co-transfected with either (i) pCK65 (PUREX8-smUox-pA) and isogenic control vector pcDNA3.1, (ii) pCK65 (PUREX8-smUox-pA) and pCK25 (PhEF1α-mUTS-pA), (iii) pCK67 (PUREX8-mUox-pA) and pcDNA3.1 or (iv) pCK67 (PUREX8-mUox-pA) and pCK25 (PhEF1α-mUTS-pA). The cells were cultivated for 72 h with 0.5 mM uric acid before urate levels were determined in the culture supernatant.
(b) Urate degradation profiles UREX-controlled smUox expression. […]
SEAP levels are quantified in cell culture supernatants and mouse serum using a standard p-nitrophenylphosphate-based light absorbance time course (Berger, J., Hauber, J., Hauber, R., Geiger, R. & Cullen, B. R., Gene 66, 1-10 (1988)). Uric acid levels are assessed in cell culture supernatants, murine serum or urine using the Amplex® Red uric acid/uricase assay kit (Invitrogen, Basel, Switzerland, Cat. No. A22181) according to the manufacturer's protocol. […] The addition of uricase triggers the enzymatic conversion of uric acid to allantoin, CO2 and H2O2 that reacts, in the presence of horseradish peroxidase stoichiometrically with Amplex Red reagent to generate the red-fluorescent oxidation product resorufin which can be quantified at 585 nm.

## O=c1[nH]c(=O)c2[nH]c(=O)[nH]c2[nH]1 [uric acid, 7,9-dihydro-3H-purine-2,6,8-trione]
[1]
  effect on SEAP expression: derepresses SEAP expression

B1: mUox: intracellular variant of the urate oxidase from Aspergillus flavus codon-optimized for expression in mammalian cells (protein, UniProt Q00511 2-302, looked up)
Uricase: SAVKAARYGKDNVRVYKVHKDEKTGVQTVYEMTVCVLLEGEIETSYTKADNSVIVATDSIKNTIYITAKQNPVTPPELFGSILGTHFIEKYNHIHAAHVNIVCHRWTRMDIDGKPHPHSFIRDSEEKRNVQVDVVEGKGIDIKSSLSGLTVLKSTNSQFWGFLRDEYTTLKETWDRILSTDVDATWQWKNFSGLQEVRSHVPKFDATWATAREVTLKTFAEDNSASVQATMYKMAEQILARQQLIETVEYSLPNKHYFEIDLSWHKGLQNTGKNAEVFAPQSDPNGLIKCTVGRSSLKSKL
modifications: codon-optimized for mammalian expression
notes: intracellular variant of the urate oxidase from Aspergillus flavus codon-optimized for expression in mammalian cells
Uric acid
  reduction of uric acid in the culture medium: reduces uric acid
